Key:
Cytochrome P450 1A2 = biological target: T1, Cytochrome P450 1A2 (Homo sapiens, UniProt P05177); experiment: Inhibition of CYP1A2 (unknown origin); assay type: ADME
T1 sequence (P05177 whole entry): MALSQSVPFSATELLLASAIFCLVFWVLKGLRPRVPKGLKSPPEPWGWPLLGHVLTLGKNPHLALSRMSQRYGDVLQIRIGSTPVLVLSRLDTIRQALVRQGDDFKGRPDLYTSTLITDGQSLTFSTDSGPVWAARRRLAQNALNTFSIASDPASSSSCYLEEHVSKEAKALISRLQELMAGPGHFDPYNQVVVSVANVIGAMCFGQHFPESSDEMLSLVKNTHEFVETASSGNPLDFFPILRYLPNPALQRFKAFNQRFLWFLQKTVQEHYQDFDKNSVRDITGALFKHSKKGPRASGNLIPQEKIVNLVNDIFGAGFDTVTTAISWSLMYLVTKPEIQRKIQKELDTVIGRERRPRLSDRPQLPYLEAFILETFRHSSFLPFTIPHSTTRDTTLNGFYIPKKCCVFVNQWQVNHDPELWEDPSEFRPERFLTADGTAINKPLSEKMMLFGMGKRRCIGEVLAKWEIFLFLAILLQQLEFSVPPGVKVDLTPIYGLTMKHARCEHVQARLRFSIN

[1] = AUC (0 to last) in C57BL/6 mouse liver at 5 mg/kg, po; assay type: ADME, organism-based; conditions: in vivo
Cytochrome P450 2C19 = Cytochrome P450 2C19 (Homo sapiens, UniProt P33261); experiment: Inhibition of CYP2C19 (unknown origin); assay type: ADME
Chain of Cytochrome P450 2C19 (P33261 whole entry): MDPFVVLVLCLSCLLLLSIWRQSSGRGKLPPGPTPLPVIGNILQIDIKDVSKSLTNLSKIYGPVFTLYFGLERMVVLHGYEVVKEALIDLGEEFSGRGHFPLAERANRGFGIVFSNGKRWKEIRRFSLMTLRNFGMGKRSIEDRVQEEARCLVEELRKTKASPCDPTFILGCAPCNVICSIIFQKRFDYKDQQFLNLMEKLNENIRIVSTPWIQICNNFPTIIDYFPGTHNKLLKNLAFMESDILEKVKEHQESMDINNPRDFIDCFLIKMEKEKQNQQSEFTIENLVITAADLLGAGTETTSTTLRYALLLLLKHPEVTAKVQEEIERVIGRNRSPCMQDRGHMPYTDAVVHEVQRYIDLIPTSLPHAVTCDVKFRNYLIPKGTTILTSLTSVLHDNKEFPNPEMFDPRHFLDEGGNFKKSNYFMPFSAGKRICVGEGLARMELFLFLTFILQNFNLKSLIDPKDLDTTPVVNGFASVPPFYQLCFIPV

Homo sapiens = species: Homo sapiens; experiment: Binding affinity to histamine receptor (unknown origin)
[2] = Protein binding in mouse plasma; assay type: ADME, cell-free; conditions: read-out: PPB (converted)
[3] = Drug metabolism in human liver microsomes at 1 uM after 15 mins; assay type: ADME, microsome; conditions: read-out: Drug metabolism
[4] = Cmax in C57BL/6 mouse liver at 5 mg/kg, po; assay type: ADME, organism-based; parameters: dose 5 mg/kg, route oral
[5] = Drug metabolism in mouse liver microsomes at 1 uM after 15 mins; assay type: ADME, microsome; conditions: read-out: Drug metabolism
[6] = biological target: T2, Toll-like receptor 8 (Homo sapiens) (UniProt Q9NR97); experiment: Agonist activity at human TLR8 expressed in HEK293 cells after 6 hrs by NFkappaB-luciferase reporter gene assay; assay type: cell-based
T2 sequence (whole entry): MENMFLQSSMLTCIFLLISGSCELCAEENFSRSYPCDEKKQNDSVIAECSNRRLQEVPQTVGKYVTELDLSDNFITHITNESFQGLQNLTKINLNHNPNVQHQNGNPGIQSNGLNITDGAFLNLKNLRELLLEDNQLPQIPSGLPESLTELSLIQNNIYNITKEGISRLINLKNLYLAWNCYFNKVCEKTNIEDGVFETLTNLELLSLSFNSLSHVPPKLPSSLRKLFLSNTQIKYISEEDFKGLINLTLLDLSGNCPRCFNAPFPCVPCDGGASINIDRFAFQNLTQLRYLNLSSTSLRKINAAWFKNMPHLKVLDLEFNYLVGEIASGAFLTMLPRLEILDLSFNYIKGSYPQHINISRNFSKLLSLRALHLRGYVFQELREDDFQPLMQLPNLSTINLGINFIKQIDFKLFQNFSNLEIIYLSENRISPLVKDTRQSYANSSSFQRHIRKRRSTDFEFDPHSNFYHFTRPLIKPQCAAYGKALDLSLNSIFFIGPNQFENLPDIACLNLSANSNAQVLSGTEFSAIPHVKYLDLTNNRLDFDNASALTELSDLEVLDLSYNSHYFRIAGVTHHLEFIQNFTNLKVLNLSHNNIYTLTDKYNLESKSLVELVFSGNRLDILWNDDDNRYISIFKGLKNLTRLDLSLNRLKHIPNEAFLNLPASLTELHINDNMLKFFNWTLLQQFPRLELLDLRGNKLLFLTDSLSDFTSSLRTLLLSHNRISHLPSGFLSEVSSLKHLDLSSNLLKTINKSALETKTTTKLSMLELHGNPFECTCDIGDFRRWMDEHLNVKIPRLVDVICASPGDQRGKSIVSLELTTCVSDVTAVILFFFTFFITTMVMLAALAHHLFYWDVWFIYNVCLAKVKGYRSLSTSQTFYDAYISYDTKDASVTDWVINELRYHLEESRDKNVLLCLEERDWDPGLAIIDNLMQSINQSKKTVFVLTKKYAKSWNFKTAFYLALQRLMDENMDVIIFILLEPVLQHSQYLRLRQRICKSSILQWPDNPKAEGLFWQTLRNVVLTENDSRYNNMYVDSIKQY

Cytochrome P450 2D6 = Cytochrome P450 2D6 (Homo sapiens, UniProt P10635); experiment: Inhibition of CYP2D6 (unknown origin); assay type: ADME
Chain of Cytochrome P450 2D6 (P10635 whole entry): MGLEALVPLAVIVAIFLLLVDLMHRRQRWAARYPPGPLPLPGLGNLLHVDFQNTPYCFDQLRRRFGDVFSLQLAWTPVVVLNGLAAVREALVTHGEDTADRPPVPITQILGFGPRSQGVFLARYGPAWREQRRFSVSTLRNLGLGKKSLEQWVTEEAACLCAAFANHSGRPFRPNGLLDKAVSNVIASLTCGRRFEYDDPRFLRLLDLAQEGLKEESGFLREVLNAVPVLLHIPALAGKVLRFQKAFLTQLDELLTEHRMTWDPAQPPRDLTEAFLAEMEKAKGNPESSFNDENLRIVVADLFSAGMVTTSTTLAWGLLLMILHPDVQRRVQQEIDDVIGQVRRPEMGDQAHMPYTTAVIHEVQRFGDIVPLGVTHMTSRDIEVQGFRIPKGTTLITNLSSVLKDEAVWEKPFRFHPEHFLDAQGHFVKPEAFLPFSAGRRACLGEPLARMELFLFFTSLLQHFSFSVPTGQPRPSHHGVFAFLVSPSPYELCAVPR

Cytochrome P450 2C9 = Cytochrome P450 2C9 (Homo sapiens, UniProt P11712); experiment: Inhibition of CYP2C9 (unknown origin); assay type: ADME
Chain of Cytochrome P450 2C9 (P11712 whole entry): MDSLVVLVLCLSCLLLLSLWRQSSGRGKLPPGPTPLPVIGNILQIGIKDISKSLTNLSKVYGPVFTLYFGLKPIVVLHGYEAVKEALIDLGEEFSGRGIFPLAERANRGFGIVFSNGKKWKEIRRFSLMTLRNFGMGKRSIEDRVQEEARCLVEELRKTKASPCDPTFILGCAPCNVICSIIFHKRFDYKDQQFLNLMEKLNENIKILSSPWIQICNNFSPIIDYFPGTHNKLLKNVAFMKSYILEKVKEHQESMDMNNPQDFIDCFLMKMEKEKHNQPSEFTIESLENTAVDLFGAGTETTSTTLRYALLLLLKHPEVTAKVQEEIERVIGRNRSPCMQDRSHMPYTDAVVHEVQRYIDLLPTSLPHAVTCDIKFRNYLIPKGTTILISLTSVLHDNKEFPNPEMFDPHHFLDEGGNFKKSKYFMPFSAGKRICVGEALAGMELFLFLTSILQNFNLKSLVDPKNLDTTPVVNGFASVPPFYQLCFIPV

[7] = Cytotoxicity against HEK293 cells transfected with the CMV-TLR7 construct assessed as reduction in cell viability after 6 hrs by ATPlite assay; assay type: cell-based; conditions: human
Cytochrome P450 2C8 = biological target: T3, Cytochrome P450 2C8 (Homo sapiens, UniProt P10632); experiment: Inhibition of CYP2C8 (unknown origin); assay type: ADME
T3 sequence (P10632 whole entry): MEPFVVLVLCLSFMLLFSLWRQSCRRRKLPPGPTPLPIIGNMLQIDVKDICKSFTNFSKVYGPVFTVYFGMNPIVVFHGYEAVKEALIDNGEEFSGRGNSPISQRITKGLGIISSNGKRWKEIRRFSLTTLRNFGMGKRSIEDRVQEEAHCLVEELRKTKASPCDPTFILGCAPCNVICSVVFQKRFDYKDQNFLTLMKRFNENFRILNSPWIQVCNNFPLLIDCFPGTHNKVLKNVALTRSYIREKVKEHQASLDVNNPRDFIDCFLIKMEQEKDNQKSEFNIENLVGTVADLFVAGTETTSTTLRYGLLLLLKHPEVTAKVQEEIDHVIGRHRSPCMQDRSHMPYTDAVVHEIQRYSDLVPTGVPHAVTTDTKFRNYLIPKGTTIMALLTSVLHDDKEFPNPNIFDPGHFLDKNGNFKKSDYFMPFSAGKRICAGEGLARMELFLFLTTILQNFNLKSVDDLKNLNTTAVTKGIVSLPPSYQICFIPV

`CCC[C@@H](CCO)Nc1nc(N)nc2c1CN(C(=O)c1csc(C)n1)CC2` showed an IC50 (Cytochrome P450 1A2) of over 10 µM, an AUClast [1] of 1410 ng·h/g and an IC50 (Cytochrome P450 2C19) of over 10 µM. The Activity (Homo sapiens) was over 10 µM, the fraction unbound [2] was 0.7 and the metabolised at 0.25 h, 1 µM [3] was 21%. For the same compound, the Cmax [4] was 711 ng/g, the metabolised at 0.25 h, 1 µM [5] was 33% and the MEC [6] was 3.4 µM. For the same compound, the IC50 (Cytochrome P450 2D6) was over 10 µM, the IC50 (Cytochrome P450 2C9) was over 10 µM and the CC50 at 6 h [7] was over 24 µM. It also gave an IC50 (Cytochrome P450 2C8) of over 10 µM.

From ChEMBL document CHEMBL4265889, “Design and synthesis of tetrahydropyridopyrimidine based Toll-Like Receptor (TLR) 7/8 dual agonists” (Bioorg Med Chem Lett, 2018)
